One compound from US9289446B2, “Myocardial perfusion imaging methods and compositions” (GILEAD SCIENCES, INC., priority 2002, dated 2016) can be followed below.

The structures appear in SMILES notation.

For data set [1], the system named is coronary blood flow velocity (CBFv). Put plainly: Example 1: open label study of CVT-3146 IV bolus on CBFv (Doppler flow wire) in patients undergoing coronary catheterization. Format: in vivo, humans. The protocol: The purpose of this open label study was to determine the magnitude and duration of effect of CVT-3146 (10-500 μg) on CBFv in humans.
METHODS: Patients undergoing a clinically indicated coronary catheterization with no more than a 70% stenosis in any coronary artery and no more than a 50% stenosis of the study vessel had CBFv determined by Doppler flow wire. Study subject were selected after measuring baseline and peak CBFv after an intracoronary (IC) injection of 18 μg of Ado. Twenty-three patients, who were identified as meeting the study criteria of having a peak to baseline CBFv ratio of ≧2.5 in response to Adenosine, received a rapid (<10 sec) peripheral IV bolus of CVT-3146; Doppler signals were stable and interpretable over the time-course of the increase in CBFv in 17 patients.

In data set [2] the test system is coronary blood flow velocity. Put plainly: Example 2: dose-ranging study of CVT-3146 IV bolus as coronary vasodilator (coronary flow velocity, heart rate, blood pressure, adverse events). The data set is classed as in vivo, human. The source says: This example is a study performed to determine the range of dosages over which the selective A2A receptor agonist, CVT-3146 can be administered and be effective as a coronary vasodilator.
The study included patients undergoing a clinically indicated coronary catheterization with no more than a 70% stenosis in any coronary artery and no more than a 50% stenosis of the study vessel had CBFv determined by Doppler flow wire. Study subject were selected after measuring baseline and peak CBFv after an intracoronary (IC) injection of 18 μg of Ado. 36 subjects were identified as meeting the study criteria of having a peak to baseline CBFv ration of ≧2.5 in response to Adenosine,
CVT-3146 was administered to the study subjects by IV bolus in less that 10 seconds in amounts ranging from 10 μg to 500 μg.
The effectiveness of both compounds was measured by monitoring coronary flow velocity. Other coronary parameters that were monitored included heart rate and blood pressure. These parameters were measured in order to evaluate the time to peak dose response, the magnitude of the dose response and the duration of the dose response. Adverse events were also monitored. Coronary blood flow velocity was measured at the left anterior descending coronary artery (LAD) or left circumflex coronary artery (LCx). The velocity measurements were taken by following standard heart catheterization techniques and inserting a 0.014 inch Doppler-tipped Flowire into the LAD or LCx vessel and thereafter monitoring blood flow velocity. In addition, hemodynamic and electrocardiographic measurements were recorded continuously.
Overall, 36 human subjects (n=36) were evaluated. Of the 36, 18 were female and 18 were male. Their mean age was 53.4 and they ranged from 24-72 years in age. Of the 36 subjects evaluated, the LAD vessel of 31 subjects was monitored, and the LCx vessel of 5 subjects was monitored. The following doses (μg) of CVT-3146 were given to the subjects in a single iv bolus: 10 (n=4); 30 (n=6); 100 (n=4); 300 (n=7); 400 (n=9); 500 (n=6).

The nature of data set [3]: Example 3: pharmacokinetic profile of CVT-3146 in healthy volunteers after single IV bolus (three-compartment model). The data set is classed as in vivo. The following applies: male, human, plasma, Total (doses 1-30 μg/kg), N=22, mean, read-out: VSS (volume of distribution at steady state). The protocol:
This Example is a study performed to evaluate (1) the maximum tolerated dose of CVT-3146 and (2) the pharmacokinetic profile of CVT-3146 in healthy volunteers, after a single IV bolus dose.
The study was performed using thirty-six healthy, non-smoking male subjects between the ages of 18 and 59 and within 15% of ideal body weight.
CVT-3146 was administered as an IV bolus (20, seconds) in ascending doses of […], 10, 20, and 30 μg/kg.
Pharmacokinetics: • Plasma samples were drawn during supine phase (Days 1 and 2) at 0, 1, 2, 3, 4, 5, 7, 10, 15, 20, 30, 45 minutes after dosing and at 1, 1.5, 2, 4, 6, 8, 12 and 24 hours after dosing. Urine was collected for 24 hours for CVT-3146 excretion.
A three-compartment open model was fit to the data using observed Tmax (1-4 minutes) as the duration of a zero-order infusion. Reliable parameter estimates were obtained for dose of 1-30 μg/kg. Parameters are summarized in the following (Table 2): […]

For data set [4], the system named is heart rate (HR) and blood pressure (BP). Description: Example 5: heart rate, blood pressure and plasma catecholamines after i.v. bolus in awake rats (sympathoexcitation). The data set is classed as in vivo. The method, then:
The present study was carried out to determine whether CVT-3146, a selective A2A adenosine receptor agonist, causes sympathoexcitation.
CVT (0.31 μg/kg-50 μg/kg) was given as a rapid i.v. bolus to awake rats and heart rate (HR) and blood pressure (BP) were monitored. CVT-3146 caused an increase in BP and systolic pressure (SP) at lower doses while at higher doses there was a decrease in BP and SP. […] The increase in HR was evident at the lowest dose of CVT at which there was no appreciable decrease in BP. ZM241385 (30 μg/kg, N=5), an A2A receptor antagonist, attenuated the decrease in BP (CVT-3146: 14±3%, ZM: 1±1%) and the increase in HR (CVT: 27±3%, ZM: 18±3%) caused by CVT-3146. Pretreatment with metoprolol (MET, 1 mg/kg, n=5), a beta-blocker, attenuated the increase in HR (CVT: 27±3%, MET: 15±2%), but had no effect on hypotension caused by CVT-3146. In the presence of hexamethonium (HEX, 10 mg/kg, n=5), a ganglionic blocker, the tachycardia was prevented (CVT: 27±3%, HEX: −1±2%), but BP was further reduced (CVT: −11±2%, HEX: −49±5%).

Data set [5] has as its system myocardial ischemia detection (SPECT MPI). Description: Example 6: stress/rest SPECT myocardial perfusion imaging, CVT-3146 versus adenosine. The data set is classed as in vivo, human. As to conditions: 400 mcg vs 500 mcg. From the text:
Pharmacologic stress SPECT myocardial perfusion imaging (MPI) with adenosine (A) is a well-accepted technique, with excellent diagnostic and prognostic value and proven safety. However, side effects are common and AV nodal block and severe flushing are poorly tolerated. Agents such as CVT-3146 selectively act upon the A2A adenosine receptor and avoid stimulation of other receptor subtypes which may prevent such adverse reactions.
To determine the ability of CVT-3146 to produce coronary hyperemia and accurately detect CAD, 35 subjects (26 men, 9 women; 67±10 years) underwent both A and CVT-3146 stress/rest MPI, with 10.0±9.1 days between studies. […] CVT-3146 [400 mcg (n=18), 500 mcg (n=17)] was administered as an IV bolus immediately followed by a saline flush, and then a Tc-99m radiopharmaceutical [sestamibi (n=34), tetrofosmin (n=1)]. SPECT images were uniformly processed, intermixed with control studies (normal and fixed-only defects), and interpreted by three observers in a blinded fashion using a 17-segment model. Quantitative analysis was also performed using 4D MSPECT. In addition to three separate readings, a consensus interpretation was performed and then a direct, same-screen comparison of A and CVT-3146 images undertaken to determine relative differences, using 5 regions per study.

As for `CNC(=O)c1cnn(-c2nc(N)c3ncn([C@@H]4O[C@H](CO)[C@@H](O)[C@H]4O)c3n2)c1` [CVT-3146, (1-{9-[(4S,2R,3R,5R)-3,4-dihydroxy-5-(hydroxymethyl)oxolan-2-yl]-6-aminopurin-2-yl}pyrazol-4-yl)-N-methylcarboxamide], in data set [1] (500 μg (n=3)), the “maximal decrease in systolic blood pressure (BP)” value worked out at 8.7±7.6 and the “maximal increase in heart rate (HR)” value is 18.7±4.0. For the same compound, in data set [1] (500 μg dose, 3 patients), the “adverse events (AEs)” value is “No AEs were noted”. The “adverse events (AEs)” value in data set [1] (10-500 μg IV bolus) was “infrequent and included nausea, flushing, and headache; these were mild and self-limited”. Also, the “time at which increase in CBFv was near peak, post onset of bolus” value in data set [1] (IV bolus, humans) was in the range of 30 to 40 s. Moreover, in data set [2] (400 μg IV bolus), the “time of maximum decrease in diastolic BP after dosing” value is “about 1 minute”, the “time of maximum decrease in systolic BP after dosing” value is “about 1 minute” and the “time of maximum increase in heart rate after dosing” value is “about 1 minute”. In addition, in data set [2] (doses above about 100 μg), the “peak effects compared with adenosine” value is listed as “equivalent to 18 μg adenosine administered IC”. Further, the Vd in data set [3] came to 75.5 L. Besides, the “effect on HR over dose” value in data set [4] (0.31 μg/kg-50 μg/kg rapid i.v. bolus) is “dose-dependent increase in HR”. The “decrease in BP caused by CVT-3146” value in data set [4] (CVT-3146 alone (comparison with ZM241385), awake rats) amounted to 14±3%. In data set [4] (CVT-3146 alone (comparison with hexamethonium)), the “change in BP caused by CVT-3146” value was −11±2%. For the same compound, the “increase in HR caused by CVT-3146” value in data set [4] (CVT-3146 alone, awake rats) is 27±3%. Further, in data set [5], the “dose-dependent effect on ischemia detection” value is listed as “No dose-dependent effect”.
